Kd data for one molecule are collected here from article PMC4963390, “PL3 Amidase, a Tailor-made Lysin Constructed by Domain Shuﬄing with Potent Killing Activity against Pneumococci and Related Species” (Frontiers in Microbiology, 2016).

This assay concerns the target T1, PL3.
T1 construct: gene pal
Particulars: read-out: apparent half-dissociation constant; 20 mM sodium phosphate, reducing conditions (pH 6.8 in the other assays); 20 °C; higher-affinity sites of a two-sigmoid fit (midpoint value); lower-affinity sites not listed.

Structures are written as SMILES.

As to `C[N+](C)(C)CCO` [choline], the Kd is 60 ± 9 µM.
